Values of other authors, collected in publication PMC11364775, “Ion occupancy of the selectivity filter controls opening of a cytoplasmic gate in the K2P channel TALK-2” (Nature Communications, 2024).

Target: T1, WT TALK-2 channels (human K2P17.1) (Homo sapiens, UniProt Q96T54)
T1 sequence (Q96T54 1-332): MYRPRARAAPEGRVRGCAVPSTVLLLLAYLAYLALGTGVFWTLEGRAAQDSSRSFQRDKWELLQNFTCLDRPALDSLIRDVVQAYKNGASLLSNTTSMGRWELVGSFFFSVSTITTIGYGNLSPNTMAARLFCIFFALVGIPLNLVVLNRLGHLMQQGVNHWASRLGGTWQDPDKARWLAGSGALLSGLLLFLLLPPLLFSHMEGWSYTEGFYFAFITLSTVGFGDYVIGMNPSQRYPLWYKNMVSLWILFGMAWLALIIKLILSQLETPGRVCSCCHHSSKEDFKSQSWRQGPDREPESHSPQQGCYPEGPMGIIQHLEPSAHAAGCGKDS
Parameters: expressed in transfected cells; host or cells: Xenopus laevis oocytes (cRNA injection), excised inside-out patches; method as in PMID 34928298
Conditions: cited from earlier work

SMILES: CCCCCCCC/C=C\CCCCCCCC(=O)SCCNC(=O)CCNC(=O)[C@H](O)C(C)(C)COP(=O)(O)OP(=O)(O)OC[C@H]1O[C@@H](n2cnc3c(N)ncnc32)[C@H](O)[C@@H]1OP(=O)(O)O [oleoyl-CoA]
- increase of channel activity: more than 100 fold
